Results as given in patent US12180198B2, “Ribocil C antibiotics effective for Gram-negative pathogens” (THE BOARD OF TRUSTEES OF THE UNIVERSITY OF ILLINOIS, priority 2018, dated 2024).
Where a name gives a salt, the structure may show the parent alone. Read-outs that look alike come from different tables or passages of the source.

How the values were obtained:
E. coli BAA-2469 [1] = assay: Bioactivity against exemplary strains of bacteria (Table 5A); format: cell-based; parameters: unit not given here; conditions: Strain 2: E. coli BAA-2469
K. pneumoniae BAA-2146 = assay: as above; format: cell-based; conditions: Strain 4: K. pneumoniae BAA-2146
A. baumannii BAA-2093 = assay: as above; format: cell-based; conditions: Strain 3: A. baumannii BAA-2093
[2] = system: E. coli strains with intact outer membranes; assay: MIC, micro-dilution broth method (text summary); format: cell-based; conditions: E. coli strains with intact outer membranes
Protocol: FIG. 2. Antimicrobial activity of Debio-1452 and derivatives. MIC values were determined using the micro-dilution broth method as outlined by the Clinical and Laboratory Standards Institute (clsi.org/). All experiments were performed in biological triplicate.
(§1) Antimicrobial susceptibility tests. Susceptibility testing was performed in biological triplicate, using the micro-dilution broth method as outlined by the Clinical and Laboratory Standards Institute. Bacteria were cultured with cation-adjusted Muller-Hinton broth (Sigma-Aldrich, Cat #90922) in round-bottom 96-well plates (Corning, Cat #3788). Human serum (pooled gender, 0.2 μm filtered) was purchased from BioIVT (Hicksville, NY).

K. pneumoniae BAA-1705 = assay: MIC, micro-dilution broth method; format: cell-based; conditions: Klebsiella pneumoniae, BAA1705; K. pneumoniae BAA-1705; read-out: MIC
Protocol: (§2) Compounds were evaluated against a panel of Gram-positive and Gram-negative organisms. MIC values were determined using the micro-dilution broth method as outlined by the Clinical and Laboratory Standards Institute (clsi.org/) and are listed in […]. All experiments were performed in biological triplicate.
as §1

K. pneumoniae M67297 = assay: MIC, micro-dilution broth method; format: cell-based; conditions: Klebsiella pneumoniae; K. pneumoniae M67297; read-out: MIC
Protocol: as §2, §1

E. coli BAA-2471 = assay: MIC, micro-dilution broth method; format: cell-based; conditions: Escherichia coli, BAA2471; E. coli BAA-2471; read-out: MIC
Protocol: as §2, §1

A. baumannii KB343 = assay: MIC, micro-dilution broth method; format: cell-based; conditions: Acinetobacter baumannii; A. baumannii KB343; read-out: MIC
Protocol: as §2, §1

E. cloacae BAA-2468 = assay: MIC, micro-dilution broth method; format: cell-based; conditions: Enterobacter cloacae, BAA2468; E. cloacae BAA-2468; read-out: MIC
Protocol: as §2, §1

K. pneumoniae BAA-2473 = assay: MIC, micro-dilution broth method; format: cell-based; conditions: Klebsiella pneumoniae, BAA2473; K. pneumoniae BAA-2473; read-out: MIC
Protocol: as §2, §1

E. cloacae S28901.1 = assay: MIC, micro-dilution broth method; format: cell-based; conditions: Enterobacter cloacae; E. cloacae S28901.1; read-out: MIC
Protocol: as §2, §1

A. baumannii WO22 = assay: MIC, micro-dilution broth method; format: cell-based; conditions: Acinetobacter baumannii; A. baumannii WO22; read-out: MIC
Protocol: as §2, §1

E. coli AR-0495 = assay: MIC, micro-dilution broth method; format: cell-based; conditions: Escherichia coli, AR0495; E. coli AR-0495; read-out: MIC
Protocol: as §2, §1

K. pneumoniae BAA-2342 = assay: MIC, micro-dilution broth method; format: cell-based; conditions: Klebsiella pneumoniae, BAA2342; K. pneumoniae BAA-2342; read-out: MIC
Protocol: as §2, §1

E. coli MG1655 = assay: MIC, micro-dilution broth method; format: cell-based; conditions: Escherichia coli
Protocol: as §2, §1

S. aureus ATCC 29213 = assay: MIC, micro-dilution broth method; format: cell-based; conditions: Staphylococcus aureus, ATCC29213, S. aureus ATCC 29213
Protocol: as §2, §1

K. pneumoniae BAA-2472 = assay: MIC, micro-dilution broth method; format: cell-based; conditions: Klebsiella pneumoniae, BAA2472; K. pneumoniae BAA-2472; read-out: MIC
Protocol: as §2, §1

K. pneumoniae BAA-2470 = assay: MIC, micro-dilution broth method; format: cell-based; conditions: Klebsiella pneumoniae, BAA2470; K. pneumoniae BAA-2470; read-out: MIC
Protocol: as §2, §1

A. baumannii KB304 = assay: MIC, micro-dilution broth method; format: cell-based; conditions: Acinetobacter baumannii; A. baumannii KB304; read-out: MIC
Protocol: as §2, §1

A. baumannii M13100 = assay: MIC, micro-dilution broth method; format: cell-based; conditions: Acinetobacter baumannii; A. baumannii M13100; read-out: MIC
Protocol: as §2, §1

A. baumannii KB357 = assay: MIC, micro-dilution broth method; format: cell-based; conditions: Acinetobacter baumannii; A. baumannii KB357; read-out: MIC
Protocol: as §2, §1

E. coli BAA-2469 [3] = assay: MIC, micro-dilution broth method; format: cell-based; conditions: Escherichia coli, BAA2469; E. coli BAA-2469; read-out: MIC
Protocol: as §2, §1

E. coli ΔtolC JW5503 = assay: MIC, micro-dilution broth method; format: cell-based; conditions: Escherichia coli
Protocol: as §2, §1

A. baumannii W41979 = assay: MIC, micro-dilution broth method; format: cell-based; conditions: Acinetobacter baumannii; A. baumannii W41979; read-out: MIC
Protocol: as §2, §1

K. pneumoniae S20595 = assay: MIC, micro-dilution broth method; format: cell-based; conditions: Klebsiella pneumoniae; K. pneumoniae S20595; read-out: MIC
Protocol: as §2, §1

K. pneumoniae AR-0347 = assay: MIC, micro-dilution broth method; format: cell-based; conditions: Klebsiella pneumoniae, AR0347; K. pneumoniae AR-0347; read-out: MIC
Protocol: as §2, §1

E. coli AR-0349 = assay: MIC, micro-dilution broth method; format: cell-based; conditions: Escherichia coli, AR0349; E. coli AR-0349; read-out: MIC
Protocol: as §2, §1

E. cloacae BAA-2341 = assay: MIC, micro-dilution broth method; format: cell-based; conditions: Enterobacter cloacae, BAA2341; E. cloacae BAA-2341; read-out: MIC
Protocol: as §2, §1

K. pneumoniae S47889 = assay: MIC, micro-dilution broth method; format: cell-based; conditions: Klebsiella pneumoniae; K. pneumoniae S47889; read-out: MIC
Protocol: as §2, §1

A. baumannii F19521 = assay: MIC, micro-dilution broth method; format: cell-based; conditions: Acinetobacter baumannii; A. baumannii F19521; read-out: MIC
Protocol: as §2, §1

K. pneumoniae M67198 = assay: MIC, micro-dilution broth method; format: cell-based; conditions: Klebsiella pneumoniae; K. pneumoniae M67198; read-out: MIC
Protocol: as §2, §1

E. coli AR-0493 = assay: MIC, micro-dilution broth method; format: cell-based; conditions: Escherichia coli, AR0493; E. coli AR-0493; read-out: MIC
Protocol: as §2, §1

E. coli ΔrfaC JW3596 = assay: MIC, micro-dilution broth method; format: cell-based; conditions: Escherichia coli
Protocol: as §2, §1

K. pneumoniae M14723 = assay: MIC, micro-dilution broth method; format: cell-based; conditions: Klebsiella pneumoniae; K. pneumoniae M14723; read-out: MIC
Protocol: as §2, §1

E. coli AR-0346 = assay: MIC, micro-dilution broth method; format: cell-based; conditions: Escherichia coli, AR0346; E. coli AR-0346; read-out: MIC
Protocol: as §2, §1

Mouse MTD = conditions: mice, IP injection, single dose, monitored 2 weeks
Protocol: The protocol was approved by the IACUC at the University of Illinois at Urbana-Champaign (Protocol Number: 16144). In these studies, 10- to 12-week-old female C57BL/6 mice purchased from Charles River were used. The maximum tolerate dose (MTD) of a single compound was determined first. […] For multiple doses, the compound was given by daily IP for 5 consecutive days and mice were monitored for signs of toxicity for 1 month. MTD was the highest dosage with acceptable toxicity (e.g., <20% weight loss). Single dose MTDs were initially determined.

H. sapiens IMR-90 = assay: Cell viability, Alamar Blue; format: cell-based; conditions: Homo sapiens, IMR-90, read-out: % inhibition at 30 μM
Protocol: Cell culture. IMR90 cells were obtained from ATCC. IMR90 cells were grown in EMEM with 10% fetal bovine serum (Gemini Benchmark, Cat #100-106), 100 U/mL penicillin, and 100 μg/mL streptomycin. All cells were cultured at 37° C. in a 5% CO2 environment. Media was prepared by the University of Illinois School of Chemical Sciences Cell Media Facility. Sex and age of cell lines: IMR90 ([…]).
Cell viability. Cells seeded (IMR90: 5,000 cells/well) a 96-well plate (Greiner Bio-One, Cat #655180) and were allowed to attach overnight. Cells were treated with investigational compounds in DMSO (30 μM, 1% DMSO final, 100 μL/well). Raptinal (100 μM) was used as a dead control. After 24 h post-treatment, media was exchanged with compound-free media. After 72 h post-treatment, cell viability was assessed using the Alamar Blue method. Stock Alamar Blue solution [10 μL, 440 μM resazurin (Sigma-Aldrich, Cat #R7017) in sterile 1×PBS] was added to each well, and plate was incubated […]. Conversion of Alamar Blue was measured with plate reader (SpectraMax M3, Molecular Devices) by fluorescence (ex 555 nm, em 585 nm, cutoff 570 nm, autogain). Percent death was determined by normalizing to DMSO-treated cells and raptinal-treated cells.

SMILES: Cc1ccc2nc(/C=C/c3ccc(Cl)cc3)nc(NCCN)c2c1 [Z14, (E)-N^1-(2-(4-chlorostyryl)-6-methylquinazolin-4-yl)ethane-1,2-diamine]
- Bioactivity (E. coli BAA-2469 [1]): 8
- Bioactivity (K. pneumoniae BAA-2146): 64
- Bioactivity (A. baumannii BAA-2093): 8

SMILES: Cc1c(CN(C)C(=O)/C=C/c2cnc3c(c2)CC(CN)C(=O)N3)oc2ccccc12.Cl (stereo not drawn) [compound 2, (E)-3-(6-(aminomethyl)-7-oxo-5,6,7,8-tetrahydro-1,8-naphthyridin-3-yl)-N-methyl-N-((3-methylbenzofuran-2-yl)methyl)acrylamide hydrochloride]
- antibacterial activity (in words) [2]: active
- MIC (K. pneumoniae BAA-1705): 16 µg/mL
- MIC (K. pneumoniae M67297): 32 µg/mL
- MIC (E. coli BAA-2471): 4 µg/mL
- MIC (A. baumannii KB343): > 64 µg/mL
- MIC (E. cloacae BAA-2468): 8 µg/mL
- MIC (K. pneumoniae BAA-2473): 16 µg/mL
- MIC (E. cloacae S28901.1): 8 µg/mL
- MIC (A. baumannii WO22): > 64 µg/mL
- MIC (E. coli AR-0495): 2 µg/mL
- MIC (K. pneumoniae BAA-2342): 16 µg/mL
- MIC (E. coli MG1655; E. coli MG1655, read-out: MIC): 8 µg/mL
- MIC (S. aureus ATCC 29213; read-out: MIC): 0.03 µg/mL
- MIC (K. pneumoniae BAA-2472): 16 µg/mL
- MIC (K. pneumoniae BAA-2470): 4 µg/mL
- MIC (A. baumannii KB304): 64 µg/mL
- MIC (A. baumannii M13100): 16 µg/mL
- MIC (A. baumannii KB357): > 64 µg/mL
- MIC (E. coli BAA-2469 [3]): 2 µg/mL
- MIC (E. coli ΔtolC JW5503): 0.125 µg/mL
- MIC (A. baumannii W41979): 16 µg/mL
- MIC (K. pneumoniae S20595): 16 µg/mL
- MIC (K. pneumoniae AR-0347): 8 µg/mL
- MIC (E. coli AR-0349): 2 µg/mL
- MIC (E. cloacae BAA-2341): 16 µg/mL
- MIC (K. pneumoniae S47889): 8 µg/mL
- MIC (A. baumannii F19521): 16 µg/mL
- MIC (K. pneumoniae M67198): 32 µg/mL
- MIC (E. coli AR-0493): 4 µg/mL
- MIC (E. coli ΔrfaC JW3596): 0.5 µg/mL
- MIC (K. pneumoniae M14723): 16 µg/mL
- MIC (E. coli AR-0346): 4 µg/mL

SMILES: NCc1cnc(-n2cnc(CN3CCCC(c4nc(O)cc(-c5cccs5)n4)C3)c2)nc1 (stereo not drawn) [R13a]
- Bioactivity (E. coli BAA-2469 [1]): 16
- Bioactivity (K. pneumoniae BAA-2146): 64
- Bioactivity (A. baumannii BAA-2093): >128

SMILES: NCCNc1nc(/C=C/c2ccc(Cl)cc2)nc2cc3ccccc3cc12 [Z7, (E)-N^1-(2-(4-chlorostyryl)benzo[g]quinazolin-4-yl)ethane-1,2-diamine]
- Bioactivity (E. coli BAA-2469 [1]): 4
- Bioactivity (K. pneumoniae BAA-2146): >32
- Bioactivity (A. baumannii BAA-2093): 2

SMILES: Cc1c(CN(C)C(=O)/C=C/c2cnc3c(c2)CC(CCN)C(=O)N3)oc2ccccc12 (stereo not drawn) [compound 3, (E)-3-(6-(aminoethyl)-7-oxo-5,6,7,8-tetrahydro-1,8-naphthyridin-3-yl)-N-methyl-N-((3-methylbenzofuran-2-yl)methyl)acrylamide hydrochloride]
- single dose well tolerated (Mouse MTD): 100 mg/kg
- inhibition at 30 µM (H. sapiens IMR-90): 12%
- antibacterial activity (in words) [2]: active
- MIC (E. coli MG1655; MG1655): 8 µg/mL
- MIC (S. aureus ATCC 29213): 0.125 µg/mL
- MIC (E. coli ΔtolC JW5503): 0.062 µg/mL
- MIC (E. coli ΔrfaC JW3596): 0.5 µg/mL

SMILES: CCN(CC)CCNc1nc(/C=C/c2ccc(Cl)cc2)nc2cc3ccccc3cc12 [Z3, Zantrin Z3, reference compound]
- Bioactivity (E. coli BAA-2469 [1]): >64
- Bioactivity (K. pneumoniae BAA-2146): >64
- Bioactivity (A. baumannii BAA-2093): 32
